PubChem BioAssay (NCI)
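How tested: cells in 96-well plates exposed to compound for 48 hours at five concentrations. Here, GI50 denotes the concentration required for 50% inhibition of growth. The concentration for full growth arrest is given as TGI.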

How the values were obtained:
Assay in all cases: NCI-60 cell line screen, 48 h
KM12 colon = tested on: KM12 colon
SK-MEL-28 melanoma = tested on: SK-MEL-28 melanoma
MALME-3M melanoma = tested on: MALME-3M melanoma
OVCAR-4 ovarian = tested on: OVCAR-4 ovarian
HCT-116 colon = tested on: HCT-116 colon
M14 melanoma = tested on: M14 melanoma
HL-60(TB) leukemia = tested on: HL-60(TB) leukemia
MOLT-4 leukemia = tested on: MOLT-4 leukemia
CAKI-1 renal = tested on: CAKI-1 renal
SF-295 CNS = tested on: SF-295 CNS

| SMILES | TGI (KM12 colon) | TGI (SK-MEL-28 melanoma) | TGI (MALME-3M melanoma) | TGI (OVCAR-4 ovarian) | TGI (HCT-116 colon) | TGI (M14 melanoma) | TGI (HL-60(TB) leukemia) | TGI (MOLT-4 leukemia) | GI50 (KM12 colon) | GI50 (SK-MEL-28 melanoma) | GI50 (MALME-3M melanoma) | GI50 (OVCAR-4 ovarian) | GI50 (HL-60(TB) leukemia) | GI50 (CAKI-1 renal) | TGI (CAKI-1 renal) | GI50 (MOLT-4 leukemia) | GI50 (SF-295 CNS) | TGI (SF-295 CNS) | GI50 (HCT-116 colon) | GI50 (M14 melanoma) |
| --- | --- | --- | --- | --- | --- | --- | --- | --- | --- | --- | --- | --- | --- | --- | --- | --- | --- | --- | --- | --- |
| Cc1cccc(NC(N)=S)c1 | > 100 µM | > 100 µM | > 100 µM | > 100 µM | > 100 µM | > 100 µM | > 100 µM | > 100 µM | – | – | – | – | – | – | – | – | – | – | – | – |
| COc1ccc2c(c1)C(=O)c1c-2n(CCCCl)c(=O)c2cc([N+](=O)[O-])ccc12 | – | > 100 µM | 0.461 µM | 33.6 µM | 0.737 µM | 0.361 µM | 0.147 µM | – | 0.271 µM | 2.64 µM | 0.0533 µM | 0.224 µM | < 0.037 µM | 0.242 µM | 0.959 µM | < 0.0211 µM | < 0.01 µM | 0.21 µM | – | – |
| CN(C)C=O.CN(C)C=O.CN1C(C(=O)Nc2ccccn2)=C([O-])c2ccccc2S1(=O)=O.CN1C(C(=O)Nc2ccccn2)=C([O-])c2ccccc2S1(=O)=O.[Cu+2] | > 100 µM | > 100 µM | > 100 µM | 78.7 µM | > 100 µM | > 100 µM | > 100 µM | – | – | – | – | – | – | – | – | – | – | > 100 µM | – | – |
| N=C(N)SC(c1ccccc1)c1ccccc1 | 32.9 µM | 18.6 µM | 34.6 µM | 37.6 µM | 24.6 µM | 23.7 µM | 36.8 µM | 56.6 µM | – | – | – | – | – | – | 29.4 µM | – | – | 34.7 µM | – | – |
| Nc1ccc([As](=O)(O)O)cc1 | > 100 µM | > 100 µM | > 100 µM | > 100 µM | > 100 µM | > 100 µM | > 100 µM | > 100 µM | – | – | – | – | – | – | > 100 µM | – | – | > 100 µM | – | – |
| Cn1ncc2c(=O)[nH]c(-c3ccccc3)nc21 | > 100 µM | > 100 µM | > 100 µM | > 100 µM | – | > 100 µM | > 100 µM | > 100 µM | – | – | – | – | – | – | > 100 µM | – | – | > 100 µM | – | – |
| CC(C)(c1ccccc1)c1ccc(Oc2ccc3c(c2)-c2nc-3nc3[nH]c(nc4nc(nc5[nH]c(n2)c2ccc(Oc6ccc(C(C)(C)c7ccccc7)cc6)cc52)-c2cc(Oc5ccc(C(C)(C)c6ccccc6)cc5)ccc2-4)c2ccc(Oc4ccc(C(C)(C)c5ccccc5)cc4)cc32)cc1 | > 100 µM | > 100 µM | > 100 µM | – | > 100 µM | > 100 µM | > 100 µM | > 100 µM | – | – | – | – | – | – | – | – | – | – | – | – |
| O=C(Nc1ccc(-n2ccc3c(NC(=O)c4ccccc4)ncnc32)cc1)Nc1ccc(Cl)c(C(F)(F)F)c1 | 3.79 µM | 4.46 µM | 4.54 µM | 3.48 µM | 2.96 µM | 3.64 µM | 6.93 µM | 4.82 µM | 1.62 µM | 1.93 µM | 1.94 µM | 1.57 µM | 2.92 µM | 1.69 µM | 3.81 µM | 1.87 µM | 1.41 µM | 3.38 µM | 1.47 µM | 1.66 µM |
| O=C(O)\C=C/C=C/C=C/C=C/C(=O)O | > 100 µM | > 100 µM | > 100 µM | > 100 µM | > 100 µM | > 100 µM | > 100 µM | > 100 µM | – | – | – | – | – | – | > 100 µM | – | – | > 100 µM | – | – |
| CCCCCCCCCCCCCCC(C(=O)[O-])[n+]1ccccc1 (centres undefined) | > 100 µM | > 100 µM | – | > 100 µM | > 100 µM | > 100 µM | > 100 µM | > 100 µM | – | – | – | – | – | – | > 100 µM | – | – | > 100 µM | – | – |
| Cc1cc(N2CCCCC2)nc(NCc2cc(Nc3ccnc4cc(Cl)ccc34)ccc2F)n1 | 3.29 µM | – | – | 2.95 µM | 3.5 µM | 3.69 µM | 3.97 µM | 4.82 µM | 1.69 µM | – | – | 1.39 µM | 1.93 µM | 1.74 µM | 3.32 µM | 1.67 µM | 1.32 µM | 2.7 µM | 1.64 µM | 1.92 µM |
| CC(C)C(C)C(O)C(O)C(C)C1CCC2C3COC(=O)C4CC(O)C(O)CC4(C)C3CCC12C (centres undefined) | > 100 µM | > 100 µM | > 100 µM | > 100 µM | > 100 µM | > 100 µM | – | 59.1 µM | – | – | – | – | – | – | 26.3 µM | – | – | > 100 µM | – | – |
| NS(=O)(=O)c1ccc(C(=O)O)cc1 | > 100 µM | > 100 µM | > 100 µM | > 100 µM | > 100 µM | > 100 µM | > 100 µM | > 100 µM | – | – | – | – | – | – | > 100 µM | – | – | > 100 µM | – | – |
| COc1ccc(C(=O)NNC(=O)c2nsc3ccccc23)cc1 | > 100 µM | > 100 µM | – | > 100 µM | > 100 µM | > 100 µM | 82.5 µM | > 100 µM | – | – | – | – | – | – | – | – | – | – | – | – |
| NC(CCCNc1ccc(O)cc1)C(=O)O (centres undefined) | > 100 µM | > 100 µM | > 100 µM | 31.7 µM | 32.1 µM | > 66.9 µM | 58.3 µM | 56.9 µM | – | – | – | – | – | – | > 100 µM | – | – | > 100 µM | – | – |
| CC1(C)CCCC2(C)C3=C(CCC12)C(=O)OC3 (centres undefined) | > 100 µM | > 100 µM | > 100 µM | > 100 µM | > 100 µM | > 100 µM | 67.9 µM | > 100 µM | – | – | – | – | – | – | > 100 µM | – | – | > 100 µM | – | – |
| COC(=O)C12OCC34C(CC5C(C)C6=CC(=O)OC6=CC5(C)C3C(O)C1O)OC(=O)C(OC(C)=O)C24 (centres undefined) | 32.6 µM | 30.1 µM | 21.9 µM | 41.2 µM | 37.2 µM | 32.8 µM | 33.3 µM | 45.6 µM | – | – | – | – | – | – | 25.2 µM | – | – | 65.7 µM | – | – |
| Cn1c(=O)c2c(nc(N3CCOCC3)n2CCCNCC(O)c2ccc(O)c(O)c2)n(C)c1=O (centres undefined) | > 100 µM | > 100 µM | > 100 µM | > 100 µM | > 100 µM | > 100 µM | – | > 100 µM | – | – | – | – | – | – | > 100 µM | – | – | > 100 µM | – | – |
| O=C1CC(c2ccccc2)NCCCCN2CC(CN1)C(C(O)c1ccccc1)C2=O (centres undefined) | > 100 µM | > 100 µM | > 100 µM | > 100 µM | > 100 µM | > 100 µM | > 100 µM | > 100 µM | – | – | – | – | – | – | > 100 µM | – | – | > 100 µM | – | – |
| CC1(C)CCc2cc3c(cc2O1)OC(C)(C)CC3=O | > 100 µM | – | – | > 100 µM | > 100 µM | > 100 µM | > 100 µM | > 100 µM | – | – | – | – | – | – | > 100 µM | – | – | > 100 µM | – | – |
| CCc1cc(C)cc2[n+]1CC=C2C | > 100 µM | > 100 µM | > 100 µM | > 100 µM | – | > 100 µM | > 100 µM | – | – | – | – | – | – | – | > 100 µM | – | – | > 100 µM | – | – |
